Data published in ChEMBL document CHEMBL1142097, “EthA, a common activator of thiocarbamide-containing drugs acting on different mycobacterial targets” (Antimicrob Agents Chemother, 2007).
Active and inactive are the calls of the source. The calls are words filed in the database; no cut-off is given here.

System: Mycobacterium tuberculosis
Assay: Antimycobacterial activity against Mycobacterium tuberculosis H37Rv
Type: functional, organism-based

## COc1ccc(/C(C)=N/NC(N)=S)cc1
  Activity: Active
